# Non-standard residues stand in square brackets, D forms with d. Residues, ends and D or L forms follow the SMILES beside them. Gly(octyl) = CCCCCCCC[C@H](N)C(=O)O
# Molecular target: T1, human neutrophil elastase (Homo sapiens, UniProt P08246)
# T1 construct: from tissue; host or cells: spontaneous sputum of patients with cystic fibrosis (PBS-soluble fraction)
# T1 sequence (P08246 30-247 limits assumed): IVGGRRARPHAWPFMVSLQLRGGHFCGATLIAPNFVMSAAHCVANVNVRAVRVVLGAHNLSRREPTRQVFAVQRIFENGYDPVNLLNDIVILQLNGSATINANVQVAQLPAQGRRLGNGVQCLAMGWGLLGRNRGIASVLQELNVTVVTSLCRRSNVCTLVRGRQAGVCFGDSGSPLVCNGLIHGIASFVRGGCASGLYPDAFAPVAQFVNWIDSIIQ
# Test: Phase-1b study, active neutrophil elastase in sputum by FRET elastase assay
# Assay type: in vivo
# Conditions: CF patients; response appeared independent of dose; returned to baseline at 24 h
# Procedure: The pharmacodynamic effect of ascending single doses of active compound was investigated by evaluation of neutrophil elastase (NE) activity in sputum using FRET (fluorescence resonance energy transfer) assay after PBS aliquotation and freezing.
# On the day of screening, if possible, for baseline assessment of NE activity, on Day −1 as soon as possible after the subject's arrival at the study site for baseline assessment of NE activity, on Day 1 in the period of time between 1 h and 3 h after start of inhalation, and in the morning of Day 2, at approx. 24 h after start of inhalation.
# For evaluation of NE activity in sputum, at first, the weight of the sputum sample was determined and 8 mL cold phosphate-buffered saline (PBS) per gram purified sputum was added. […]
# The NE activity in sputum was evaluated by using a FRET elastase assay adapted from an assay described in Nature Protocols, 2008, 3, 991 (B. Korkmaz, S. Attucci, M. A. Juliano et al.) and validated by MLM Medical Labs GmbH, Mönchengladbach, Germany.
# The assay is based on the reaction of human neutrophil elastase with the substrate 2Abz-Ala-Pro-Glu-Glu-Ile-Met-Arg-Arg-Gln-Tyr(3NO2)—OH (GeneCust Europe S.A., Ellange, Luxembourg, #P160301-SY452824). […] The product of the reaction is detected through fluorescence measurement and the initial reaction velocity is determined. […]
structure (smiles),measurement,value
CCCCCCCC[C@@H]1NC(=O)[C@@H]2CCCN2C(=O)[C@H]2CCCN2C(=O)[C@H](Cc2ccc(O)cc2)NC(=O)[C@H](CCCCN)NC(=O)[C@H](CCC(N)=O)NC(=O)[C@@H]2CCCN2C(=O)[C@@H]2CCCN2C(=O)[C@H]([C@@H](C)CC)NC(=O)[C@H](CO)NC(=O)[C@H](C)NC(=O)[C@H]([C@@H](C)O)NC(=O)[C@H](CCC(=O)O)NC1=O [cyclo(-OctG-Glu-Thr-Ala-Ser-Ile-Pro-Pro-Gln-Lys-Tyr-^DPro-Pro-)] (cyclo([Gly(octyl)]ETASIPPQKY[dP]P)),mean concentration of active NE in sputum after single-dose inhalation,strongly decreased

# Reference: US11844823B2, “Beta-hairpin peptidomimetic with elastase inhibitory activity and aerosol dosage forms thereof” (POLYPHOR AG, priority 2016, dated 2023)
